# Reference: patent US20120269739A1, “COMPOSITION, USE, AND PRESERVATION METHOD” (L'OREAL, priority 2009, published 2012)
# Assays:
# [1] = test system: Staphylococcus aureus (ATCC 6538); test: Action kinetics in broth; type: cell-based; settings: TS broth pH 5.2±0.3, 35° C., gingerone 2%, sodium benzoate 3.3%, chlorhexidine digluconate 2.2%
# Description: (§1) The object of this example is to distinguish a compound according to the invention (gingerone) from the preserving agents conventionally used for protecting cosmetic formulations against microbial contamination, as regards the action kinetics.
# (§2) The solutions are prepared in Trypto-casein-soya (TS) broth for the bacteria and in Sabouraud broth for the yeast. These solutions are adjusted to pH 5.2±0.3.
# (§3) For each microbial solution, a growth control consisting of the appropriate culture medium alone is prepared.
# (§4) The solutions in TS broth (36 ml) are inoculated separately with each of the bacteria (4 ml of microbial suspension) to a final content of 10^6 cfu/ml of mixture.
# (§5) The inoculated samples are then placed in an incubator-agitator at 35° C.±2° C. Samples are taken after 6 hours, 24 hours, 48 hours, 72 hours and 7 days. Decimal dilutions are then prepared in Eugon LT100 broth. These dilutions are left for 30 minutes±15 minutes at 25° C. in order to neutralize the preserving agents, and are then double-seeded on the surface of Petri dishes containing Eugon LT100 agar.
# (§6) The Petri dishes are then incubated in an oven at 35° C.±2° C. for a variable time depending on the strain concerned: • 48 hours; S. aureus; • 5 days: E. faecalis and C. albicans.
# (§7) The results are expressed for each solution, each strain and each contact time as the number of cfu/ml of stock solution.
# [2] = test system: Enterococcus faecalis (ATCC 33186); test: Action kinetics in broth; type: cell-based; settings: TS broth pH 5.2±0.3, 35° C., gingerone 2%, sodium benzoate 3.3%, chlorhexidine digluconate 2.2%
# Description: as §1, §2, §3, §4, §5, §6, §7
# [3] = test system: collection microbial strains (bacteria, yeasts and moulds); test: Challenge Test, overall finding over strains and formulas; type: cell-based; settings: three formulas, five strains, gingerone 2%
# [4] = test system: Candida albicans (ATCC 10231); test: Action kinetics in broth; type: cell-based; settings: Sabouraud broth pH 5.2±0.3, 35° C., gingerone 2%, sodium benzoate 3.3%, chlorhexidine digluconate 2.2%
# Description: as §1, §2, §3
# The solutions in Sabouraud broth (36 ml) are inoculated with the yeast (4 ml of suspension) to a final content of 10^6 cfu/ml.
# as §5, §6, §7
# [5] = test system: Pseudomonas aeruginosa (Pa) ATCC 19429; test: Challenge Test (artificial contamination) of cosmetic formula; settings: 22° C., chlorhexidine digluconate 0.3%, gingerone 2%
# [6] = test system: Escherichia coli (Ec) ATCC 8739; test: as above; type: cell-based; settings: 22° C., chlorhexidine digluconate 0.3%, gingerone 2%
# Text: (§8) 5 pure microorganism cultures are used.
# [7] = test system: Enterococcus faecalis (Ef) ATCC 33186; test: as above; type: cell-based; settings: 22° C., chlorhexidine digluconate 0.3%, gingerone 2%
# Text: as §8
# [8] = test system: Aspergillus niger (An) ATCC 6275; test: as above; type: cell-based; settings: 22° C., chlorhexidine digluconate 0.3%, gingerone 2%
# Text: as §8
# [9] = test system: Candida albicans (Ca) ATCC 10231; test: as above; type: cell-based; settings: 22° C., chlorhexidine digluconate 0.3%, gingerone 2%; for Log reduction number after 7 days of contact, relative to the control, Candida albicans: Amt weight %: sodium benzoate 0.6%
# Text: as §8
# bacteria and yeast = test: Action kinetics, overall conclusion; type: cell-based; settings: gingerone 2%; in particular on the bacteria
# Description: as §1, §5
# [10] = 1st formula O/W emulsion, Amt weight %: phenoxyethanol 1%, sodium benzoate 0.6%
# [11] = 2nd formula lotion (pH 7 ± 0.2), Amt weight %: sodium benzoate 0.6%, phenoxyethanol 1%
# [12] = 3rd formula O/W emulsion, Amt weight %: sodium benzoate 0.6%
compound,measurement,setting,value
"COc1cc(CCC(C)=O)ccc1O [Gingerone, gingerone]","Number of cfu counted after strain/solution contact time, Staphylococcus aureus","[1]; contact time 0 hours, first series",1.7 × 10^6 cfu/ml
same,"Number of cfu counted after strain/solution contact time, Staphylococcus aureus","[1]; contact time 0 hours, second series of Table 1",2.5 × 10^6 cfu/ml
same,"Number of cfu counted after strain/solution contact time, Staphylococcus aureus","[1]; contact time 6 hours, first series",1.2 × 10^6 cfu/ml
same,"Number of cfu counted after strain/solution contact time, Staphylococcus aureus","[1]; contact time 6 hours, second series of Table 1",1.2 × 10^6 cfu/ml
same,"Number of cfu counted after strain/solution contact time, Staphylococcus aureus","[1]; contact time 24 hours, first series",1.7 × 10^5 cfu/ml
same,"Number of cfu counted after strain/solution contact time, Staphylococcus aureus","[1]; contact time 24 hours, second series of Table 1",1.6 × 10^5 cfu/ml
same,"Number of cfu counted after strain/solution contact time, Staphylococcus aureus","[1]; contact time 48 hours, first series",8.1 × 10^3 cfu/ml
same,"Number of cfu counted after strain/solution contact time, Staphylococcus aureus","[1]; contact time 48 hours, second series of Table 1",9.6 × 10^3 cfu/ml
same,"Number of cfu counted after strain/solution contact time, Staphylococcus aureus","[1]; contact time 72 hours, first series",40 cfu/ml
same,"Number of cfu counted after strain/solution contact time, Staphylococcus aureus","[1]; contact time 72 hours, second series of Table 1",1.3 × 10^2 cfu/ml
same,"Number of cfu counted after strain/solution contact time, Staphylococcus aureus","[1]; contact time 168 hours, first series",<100 cfu/ml
same,"Number of cfu counted after strain/solution contact time, Staphylococcus aureus","[1]; contact time 168 hours, second series of Table 1",<10 cfu/ml
same,"Number of cfu counted after strain/solution contact time, Enterococcus faecalis",[2]; contact time 0 hours,2.5 × 10^6 cfu/ml
same,"Number of cfu counted after strain/solution contact time, Enterococcus faecalis",[2]; contact time 6 hours,4.4 × 10^5 cfu/ml
same,"Number of cfu counted after strain/solution contact time, Enterococcus faecalis",[2]; contact time 24 hours,1.2 × 10^4 cfu/ml
same,"Number of cfu counted after strain/solution contact time, Enterococcus faecalis",[2]; contact time 48 hours,6.3 × 10^2 cfu/ml
same,"Number of cfu counted after strain/solution contact time, Enterococcus faecalis",[2]; contact time 72 hours,80 cfu/ml
same,"Number of cfu counted after strain/solution contact time, Enterococcus faecalis",[2]; contact time 168 hours,<10 cfu/ml
same,antimicrobial efficacy across strains and formulatory supports,[3],efficient irrespective of the strain and of the support
same,"Number of cfu counted after strain/solution contact time, Candida albicans",[4]; contact time 0 hours,2.9 × 10^6 cfu/ml
same,"Number of cfu counted after strain/solution contact time, Candida albicans",[4]; contact time 6 hours,2.9 × 10^2 cfu/ml
same,"Number of cfu counted after strain/solution contact time, Candida albicans",[4]; contact time 24 hours,<10 cfu/ml
same,"Number of cfu counted after strain/solution contact time, Candida albicans",[4]; contact time 48 hours,<10 cfu/ml
same,"Number of cfu counted after strain/solution contact time, Candida albicans",[4]; contact time 72 hours,<10 cfu/ml
same,"Number of cfu counted after strain/solution contact time, Candida albicans",[4]; contact time 168 hours,<10 cfu/ml
same,"Log reduction number after 7 days of contact, relative to the control, P. aeruginosa",[5]; [10],>4 Log
same,"Log reduction number after 7 days of contact, relative to the control, P. aeruginosa",[5]; [11],>3 Log
same,"Log reduction number after 7 days of contact, relative to the control, P. aeruginosa",[5]; [12],>4 Log
same,"Log reduction number after 7 days of contact, relative to the control, E. coli",[6]; [10],>4 Log
same,"Log reduction number after 7 days of contact, relative to the control, E. coli",[6]; [11],>4 Log
same,"Log reduction number after 7 days of contact, relative to the control, E. coli",[6]; [12],>4 Log
same,"Log reduction number after 7 days of contact, relative to the control, E. faecalis",[7]; [10],>4 Log
same,"Log reduction number after 7 days of contact, relative to the control, E. faecalis",[7]; [11],>0.5 Log
same,"Log reduction number after 7 days of contact, relative to the control, E. faecalis",[7]; [12],>4 Log
same,"Log reduction number after 7 days of contact, relative to the control, A. niger",[8]; [10],>4 Log
same,"Log reduction number after 7 days of contact, relative to the control, A. niger",[8]; [11],>4 Log
same,"Log reduction number after 7 days of contact, relative to the control, A. niger",[8]; [12],0.6 Log
same,"Log reduction number after 7 days of contact, relative to the control, C. albicans",[9]; [10],>4 Log
same,"Log reduction number after 7 days of contact, relative to the control, Candida albicans","[9]; 2nd formula lotion (pH 7 ± 0.2), phenoxyethanol 1%",>3 Log
same,"Log reduction number after 7 days of contact, relative to the control, Candida albicans",[9]; 3rd formula O/W emulsion,>4 Log
same,action kinetics in comparison with conventional preserving agents,bacteria and yeast,much more slowly
